test: compounds inducing NF-kB luciferase expression – cell-based, SH-SY5Y, dose response (AID 1241); conditions: SH-SY5Y NF-kB promoter luciferase reporter, fold induction

| Compound | EC50 |
| --- | --- |
| COc1ccc(-c2cc(-c3ccccc3O)[nH]n2)cc1 | 968 nM |
| CCOc1ccc(NC(=O)c2ccco2)c([N+](=O)[O-])c1 | 18900 nM |
| O=C(/C=C/Nc1ccccc1)c1ccccc1 | < 59 nM |
| CN(C)c1ccc(NC(=O)Nc2cccc(Cl)c2)cc1 | 3420 nM |
| Nc1ccc(Nc2nc(-c3cc4ccccc4oc3=O)cs2)cc1 | 2020 nM |
| COc1ccccc1/C=C/C(=O)Nc1ccc2c(c1)CCC2 | 5640 nM |
| Cc1ccc(NC(=O)c2ccn(C)n2)c(Br)c1 | 8250 nM |
| Nc1ccc(-c2nc3cc(N)ccc3s2)cc1 | 1100 nM |
| CC(=O)c1ccc(NC(=O)/C(Cl)=C/c2ccccc2)cc1 | 4310 nM |
| Nc1ccc(-c2nc3ccc(C(=O)O)cc3s2)cc1 | 146 nM |
| CC(=O)Nc1ccc(-c2cc3ccccc3o2)cc1 | 5560 nM |
| COc1ccc(/C=N/Nc2ncccc2[N+](=O)[O-])c(OC)c1 | 3350 nM |
| c1ccc(-c2noc(-c3cccc4ccccc34)n2)cc1 | 15600 nM |
| Clc1ccc(OCc2nc(-c3ccncc3)no2)c(Cl)c1 | 1120 nM |
| CCOC(=O)CSc1nc2cc(C)ccc2cc1C#N | 1100 nM |
| Cc1ccc(-c2noc(-c3cccs3)n2)cc1 | 2290 nM |
| C/C(=N\Nc1cccc2cccnc12)c1ccccc1O | 1010 nM |
| CCOC(=O)c1sc(=NC(=O)c2ccccc2)n(C)c1C | 2230 nM |
| COC(=O)CSc1nc(-c2cccs2)ccc1C#N | 5620 nM |
| O=C(Nc1ccc2c(c1)CCC2)c1cc2ccccc2o1 | 2410 nM |
| Cc1ccc(OCc2nc(-c3cccs3)no2)c([N+](=O)[O-])c1 | 769 nM |
| CCOc1ccc2nc(NC(=O)Nc3cccs3)sc2c1 | 1680 nM |
| N/C(=N\OC(=O)COc1ccc(Br)cc1Cl)c1ccccn1 | 1060 nM |

| Compound | EC50 |
| --- | --- |
| Cc1ccc(C)c(NC(=S)c2ccccn2)c1 | 6690 nM |
| COc1ccc(NC(=O)N2CCc3ccccc32)cc1 | 697 nM |
| Cc1ccc(S/C=C\C(=O)c2ccccc2)cc1 | 1960 nM |
| C=CCNc1nc(-c2ccc(Cl)cc2)cs1 | 11100 nM |
| CCOC(=O)c1nn(-c2ccc(Br)cc2)cc1C(=O)c1cccc2ccccc12 | 3000 nM |
| O=C(Nc1ccc(N2CCCCC2)cc1)c1ccccc1 | 978 nM |
| Fc1ccccc1Cn1nnc(-c2ccc3c(c2)OCO3)n1 | 8430 nM |
| O=C(Nc1ccc2c(c1)OCO2)c1noc2c1CCCCC2 | 1130 nM |
| CCCCc1ccc(-c2ccc(Br)cc2O)nc1 | 3360 nM |
| c1ccc(OCCSc2nnnn2-c2ccccc2)cc1 | 8350 nM |
| CC(=O)c1c(C)[nH]c(C(=O)Nc2ccc3c(c2)OCCO3)c1C | 5260 nM |
| Nc1ccc(O)cc1C(=O)OCC(=O)c1ccc(C2CCCCC2)cc1 | 3910 nM |
| O=C(COc1ccc2ccccc2c1)Nc1nccs1 | 776 nM |
| COc1c(C)cccc1C(=O)Nc1ccc(N2CCOCC2)c(Cl)c1 | 13400 nM |
| O=C(/C=C\Nc1ccc2c(c1)OCO2)c1ccc2c(c1)OCO2 | 996 nM |
| Cc1noc(/C=C/Nc2ccc(F)cc2F)c1[N+](=O)[O-] | 2360 nM |
| COc1ccc(NC(=O)c2cc3ccccn3n2)cc1 | 958 nM |
| CN1CCN(Cn2cc(/C=C/C(=O)c3ccccc3)c3ccccc32)CC1 | 3610 nM |
| Fc1ccc(-c2cnn3c(-c4cccs4)ccnc23)cc1 | 532 nM |
| O=C(OCC(=O)c1cccs1)c1ccccc1 | 12600 nM |
| Cc1ccc(-c2noc(-c3ccccc3Br)n2)cc1 | 1830 nM |
| CCNC(=O)O/N=C(\C)c1sc(-c2ccc(Cl)cc2)nc1C | 1630 nM |
| COc1ccc(NC(=O)c2csc3c2CCCC3)cc1 | 16700 nM |

| Compound | EC50 |
| --- | --- |
| Cc1ccc(C(=O)C(C)OC(=O)c2ccccc2[N+](=O)[O-])cc1 (centres undefined) | 9080 nM |
| Cc1ccc(-n2cc3ccc([N+](=O)[O-])cc3n2)cc1 | 1290 nM |
| COc1ccc(-c2cn3cc(C)ccc3n2)cc1OC | 3370 nM |
| c1ccc(COc2ccc(OCCCn3cncn3)cc2)cc1 | 19800 nM |
| O=C1C(c2cc(=O)c3ccccc3[nH]2)=C(O)c2ccccc21 | 4980 nM |
| c1ccc2sc(-c3ccc4c(c3)OCO4)nc2c1 | 868 nM |
| Cc1[nH]n(-c2cccc(Cl)c2)c(=O)c1C=NCc1ccco1 | 4940 nM |
| CCOC(=O)c1sc(NC(=O)Nc2ccccc2)cc1C | 753 nM |
| Cc1ccc(NC(=O)N2CCC(c3ccccc3)C2)cc1C (centres undefined) | 5300 nM |
| CN(C)C(=S)Nc1nc2ccccc2s1 | 15100 nM |
| CC(C)Oc1ccc(C(=O)NC2=NCCS2)cc1 | 1870 nM |
| COc1ccc(/C=N/N=C(\N)c2nonc2N)cc1 | 272 nM |
| Fc1ccccc1OCCSc1nnnn1-c1ccccc1 | 1240 nM |
| CCOC(=O)C1=C(C)n2c(s/c(=C/c3cccc([N+](=O)[O-])c3)c2=O)=NC1c1ccc(O)c(OC)c1 (centres undefined) | 2100 nM |
| CCCCCCOc1ccc(OC(=O)c2cccnc2)cc1 | 189 nM |
| c1ccc(Nc2nc(-c3ccncc3)cs2)nc1 | 1640 nM |
| COc1ccc2nc3oc(C(=O)N4CCCCC4)cc3cc2c1 | 5270 nM |
| O=C(Nc1ccccc1)c1cc2ccccc2o1 | 1240 nM |
| C(=N\NC1=Nc2cccc3cccc1c23)/c1ccccn1 | 7600 nM |
| O/C(=C\c1ccc2ccccc2n1)c1ccc(O)cc1O | 954 nM |
| CCOc1ccc(/C=N/Nc2ccccn2)cc1 | 1010 nM |
| O=C(NC(=S)Nc1ccc2c(c1)OCO2)c1ccccc1 | 5700 nM |
| Cc1ccc(-c2nc(-c3ccccc3)no2)cc1 | 925 nM |

| Compound | EC50 |
| --- | --- |
| O=C(O)c1ccc(/C=N/Nc2ccc(F)cc2F)cc1 | 1230 nM |
| Cc1c(-c2nc(N)nc(Nc3ccccc3F)n2)oc2ccccc12 | 2020 nM |
| COc1ccc(-c2nc(-c3ccc(Br)o3)no2)cc1 | 2010 nM |
| N/C(=N\OC(=O)c1ccccc1Cl)c1ccccc1 | 956 nM |
| COc1ccc(CN=C2Nc3ccccc3CS2)cc1 | 13300 nM |
| Nc1ccc2nc(-c3ccc(Cl)cc3)[nH]c2c1 | 9960 nM |
| NC(=O)c1ccsc1NC(=O)c1ccc2c(c1)CCCC2 | 455 nM |
| O=C(/C=C\Nc1cccc(F)c1)c1cccs1 | 347 nM |
| Cc1ccc(-c2cc(-c3ccccc3Cl)[nH]n2)c(O)c1 | 7150 nM |
| Cc1nc(Nc2ccccc2)sc1-c1ccccc1 | 1450 nM |
| Oc1ccccc1-c1cc(-c2ccc3c(c2)OCCO3)n[nH]1 | 639 nM |
| COc1ccc(-c2cn3cccc(C)c3n2)cc1F | 22400 nM |
| COc1ccc(N/C=C\C(=O)c2ccc3c(c2)OCO3)cc1 | 1630 nM |
| COc1cc(SC)ccc1C(=O)Nc1ccc2c(c1)OCO2 | 1290 nM |
| Clc1ccc(-c2nc3n(n2)Cc2ccccc2-3)cc1 | 343 nM |
| Cc1nn(-c2ccc([N+](=O)[O-])cc2)c(N)c1-c1ccccc1 | 6720 nM |
| Cc1ccc(-c2nc3cc(N)ccc3o2)cc1 | 2170 nM |
| Cc1ccc(-c2noc(-c3ccccc3F)n2)cc1 | 6840 nM |
| CCCCNc1ncnc2c1cnn2-c1ccc(Cl)cc1 | 7760 nM |
| O=C(Nc1ccccc1)Nc1nc2ccccc2s1 | 27200 nM |
| Cc1cccnc1Nc1nc(-c2ccccn2)cs1 | 160 nM |
| CCN(CC)C(=O)c1sc2nc(-c3ccccc3)ccc2c1N | 3090 nM |
| COc1ccc(-c2cc(-c3cc(C)ccc3O)[nH]n2)cc1 | 16000 nM |

| Compound | EC50 |
| --- | --- |
| Cc1ccc(C(=O)Nc2nnc(SCC(=O)N3CCCc4ccccc43)s2)cc1 | 1660 nM |
| CCOc1cccc2cc(-c3csc(NC(=O)CCC(=O)NCCN4CCCCC4C)n3)c(=O)oc12 (centres undefined) | 2760 nM |
| Cc1ccc(NC(=S)N2CCC(c3ccccc3)C2)c(Cl)c1 (centres undefined) | 1800 nM |
| Fc1ccc(-c2nc3n(n2)Cc2ccccc2-3)cc1 | 125 nM |
| CC1CCN(C(=O)c2cc(-c3ccccc3O)on2)CC1 | 8790 nM |
| Cc1cnc(C(=O)Nc2ccc3c(c2)CCC3)cn1 | 2450 nM |
| O=C(NCCC1=CCCCC1)Nc1ccc2nsnc2c1 | 4770 nM |
| CSc1ccc(/C=N/Nc2cccc(C(=O)O)c2)cc1 | 3430 nM |
| COc1ccc(C(=O)N=c2sc3ccccc3n2C)cc1 | 6410 nM |
| Cc1cc(O)ccc1Nc1nc(-c2cccs2)cs1 | 1510 nM |
| Cc1ccc(OCCSc2ncccn2)c(C)c1 | 5420 nM |
| COc1ccc(-c2csc(N3C(=O)CNC3=S)n2)cc1 | 935 nM |
| COc1cccc(/C=C/C(=O)Nc2ccc3c(c2)OCCO3)c1 | 3940 nM |
| CN(C)c1ccc(NC(=O)CCCc2ccccc2)cc1 | 2460 nM |
| Cc1nc(NC(=O)c2csc3ccccc23)sc1C | 943 nM |
| Cc1ccc(C(=O)c2sc3nsc(C)c3c2N)cc1 | 2000 nM |
| Cc1cc(C)n2cc(COc3ccc4ccccc4c3)nc2n1 | 1830 nM |
| Nc1ccccc1C(=O)OCCOc1ccccc1 | 910 nM |
| COc1ccc2c(c1)CC/C(=C/c1ccco1)C2=O | 1730 nM |
| CCCCCCCOc1ccc(OC(=O)c2ccncc2)cc1 | 107 nM |
| O=C(Nc1nccs1)c1ccc(-c2ccc(Cl)cc2)o1 | 27600 nM |
| Cc1ccc(O)c(NC(=O)c2noc3c2CCCCC3)c1 | 9290 nM |
| CN=c1scc(-c2ccccc2F)n1/N=C(\C)c1cccnc1 | 24400 nM |

| Compound | EC50 |
| --- | --- |
| COc1ccc(/C=N/Nc2nc3ccccc3o2)cc1O | 2140 nM |
| O=C(Nc1ccc2sc3ccccc3c(=O)c2c1)c1ccccc1Cl | 7040 nM |
| CCc1ccc(C(=O)COC(=O)c2n[nH]c3ccccc23)cc1 | 2540 nM |
| CCOc1ccc2nc(C(=O)N3CCCC(C)C3)sc2c1 (centres undefined) | 3300 nM |
| CC(C)c1ccc(-n2cnn(-c3ncccc3[N+](=O)[O-])c2=O)cc1 | 1590 nM |
| CCC(=O)Oc1ccc(-c2cnc3ccccc3n2)cc1 | 21200 nM |
| C=CCNc1ncnc2c1cnn2-c1ccc(Cl)cc1 | 1820 nM |
| Cc1ccsc1/C=N/Nc1nc2ccccc2[nH]1 | 8260 nM |
| O=C(CCS(=O)(=O)c1ccccc1)Nc1ccc(-c2nc3ccccc3s2)cc1 | 1140 nM |
| Cc1ccc(NC(=O)COc2ccccc2[N+](=O)[O-])nc1 | 18200 nM |
| Nc1nc(Nc2ccccc2)nc2ccccc12 | 1380 nM |
| CCCCCCCOc1ccc(OC(=O)c2cccnc2)cc1 | 161 nM |
| COc1cccc([C@@H]2Oc3ccc(OC)cc3C(=O)[C@H]2O)c1 | 5860 nM |
| O=C(N=Nc1c(O)[nH]c2ccccc12)c1cccs1 | 1480 nM |
| CC(=O)Nc1ccc2nc(-c3ccccc3)cn2c1 | 2700 nM |
| Clc1ccccc1-c1nnc(-c2ccc3c(c2)OCO3)o1 | 1410 nM |
| COc1ccc2c(c1)OC/C(=C/c1cccs1)C2=O | 5520 nM |
| Cc1ccc(-c2nc(Nc3ccccc3)n[nH]2)cc1 | 2290 nM |
| CCOC(=O)CSc1nc(-c2ccncc2)ccc1C#N | 6770 nM |
